≈ marks a conversion by molar mass, not a printed value.

Holding throughout (assay type): functional
Assay [1] relates to Staphylococcus aureus. Nature of the assay: Tested for antibacterial activity against methicillin resistant Staphylococcus aureus S13E.
Assay [2] relates to Staphylococcus aureus. Briefly: Tested for antibacterial activity against penicillin G sensitive Staphylococcus aureus X1.1.
Assay [3] deals with Haemophilus influenzae. Briefly: The compound was tested for antibacterial activity against resistant Haemophilus influenzae 76.
Another assay deals with Streptococcus pneumoniae. Nature of the assay: The compound was tested for antibacterial activity against Streptococcus pneumoniae Park.
The test system of the next assay is Streptococcus pyogenes. Briefly: The compound was tested for antibacterial activity against Streptococcus pyogenes C203.
A further assay relates to Streptococcus. Nature of the assay: The compound was tested for antibacterial activity against Streptococcus group D X66.
The test system of assay [4] is Staphylococcus aureus. Nature of the assay: Tested for antibacterial activity against methicillin resistant Staphylococcus aureus X400.
The subject of assay [5] is Staphylococcus epidermidis. Nature of the assay: The compound was tested for antibacterial activity against Staphylococcus epidermidis EP11.
The subject of assay [6] is Haemophilus influenzae. Nature of the assay: The compound was tested for antibacterial activity against sensitive Haemophilus influenzae C.L.
The subject of assay [7] is Staphylococcus aureus. Briefly: Tested for antibacterial activity against penicillin G resistant Staphylococcus aureus V41.

With `CC1=C(C(=O)O)N2C(=O)C(NC(=O)[C@@H](N)c3csc4ccccc34)C2SC1` (some centres not stated), the MIC against Staphylococcus aureus [1] was 128 µg/mL (≈ 317 µM); against Staphylococcus aureus [2], 32 µg/mL (≈ 79.3 µM); in the assay with Haemophilus influenzae [3] it was 16 µg/mL (≈ 39.7 µM); against Streptococcus pneumoniae, 16 µg/mL (≈ 39.7 µM); in the assay on Streptococcus pyogenes, 16 µg/mL (≈ 39.7 µM); with Streptococcus it was more than 128 µg/mL. In the assay with Staphylococcus aureus [4], this compound yielded an MIC of more than 128 µg/mL.

On to `CC1=C(C(=O)O)N2C(=O)C(NC(=O)[C@H](N)c3csc4ccccc34)C2SC1` (some centres not stated), for which the MIC with Staphylococcus aureus [1] stood at 4 µg/mL (≈ 9.91 µM); in assay [5] it was 4 µg/mL (≈ 9.91 µM); in the assay on Staphylococcus aureus [2], 1 µg/mL (≈ 2.48 µM); in the assay with Haemophilus influenzae [3] it was 1 µg/mL (≈ 2.48 µM); in the assay with Haemophilus influenzae [6], 2 µg/mL (≈ 4.96 µM); against Staphylococcus aureus [7], 4 µg/mL (≈ 9.91 µM). In addition, the MIC was 0.5 µg/mL (≈ 1.24 µM) with Streptococcus pneumoniae, 0.5 µg/mL (≈ 1.24 µM) against Streptococcus pyogenes, 128 µg/mL (≈ 317 µM) in the assay on Streptococcus and 32 µg/mL (≈ 79.3 µM) against Staphylococcus aureus [4].

Regarding `CC1=C(C(=O)O)N2C(=O)C(NC(=O)C(N)c3csc4ccccc34)C2SC1` (configuration not stated), the MIC was determined as 16 µg/mL (≈ 39.7 µM) against Staphylococcus aureus [1]; 4 µg/mL (≈ 9.91 µM) in assay [5]; 2 µg/mL (≈ 4.96 µM) with Staphylococcus aureus [2]; 2 µg/mL (≈ 4.96 µM) against Haemophilus influenzae [3]; 4 µg/mL (≈ 9.91 µM) against Haemophilus influenzae [6]; 8 µg/mL (≈ 19.8 µM) against Staphylococcus aureus [7]. Moreover, the MIC against Streptococcus pneumoniae is 4 µg/mL (≈ 9.91 µM); in the assay on Streptococcus pyogenes it was 2 µg/mL (≈ 4.96 µM); with Streptococcus, more than 128 µg/mL.

Regarding `CC1=C(C(=O)O)N2C(=O)[C@@H](NC(=O)[C@H](N)c3ccccc3)[C@H]2SC1` [CEPHALEXIN ANHYDROUS], the MIC in assay [5] was 32 µg/mL (≈ 92.1 µM); against Staphylococcus aureus [2], 4 µg/mL (≈ 11.5 µM); in the assay on Haemophilus influenzae [3], 8 µg/mL (≈ 23 µM); against Haemophilus influenzae [6], 8 µg/mL (≈ 23 µM); in the assay with Streptococcus pneumoniae, 2 µg/mL (≈ 5.76 µM); in the assay on Streptococcus pyogenes it was 0.5 µg/mL (≈ 1.44 µM).

Values taken from ChEMBL document CHEMBL1122875, “Orally absorbable cephalosporin antibiotics. 3. Preparation of biologically active R isomer of 7-(3-benzothienylglycylamido)deacetoxycephalosporanic acid” (1985).
